This note sets out measurements from patent US5672586A, “Herpes ribonucleotide reductase inhibitors” (Bio-Mega/Boehringer Ingelheim Research, Inc., priority 1995, dated 1997).

One experiment has as its system HSV-1 KOS strain. In words: Synergistic studies of acyclovir and the title compound of example 9 in the cell culture assay, HSV-1 KOS strain. Particulars: for pEC50: MOI = 0.05 PFU/cell. It is filed as cell-based, Herpes simplex virus type 1. On the procedure: BHK-21 cells clone 13 (ATCC CCL10) were incubated for two days in 850 cm^2 roller bottles (2×10^7 cells/bottle) with alpha-MEM medium (Gibco Canada Inc., Burlington, Ontario, Canada) supplemented with 8% (v/v) fetal bovine serum (FBS, Gibco Canada, Inc.). The cells were trypsinized and then transferred to fresh media in a 96-well microtiter plate at a density of 50,000 cells per well in 100 μL. The cells were incubated at 37° for a period of 6 hours to allow adhesion to the plate. The cells then were washed once with 100 μL of alpha-MEM supplemented with 0.5% FBS (v/v) and incubated with 100 μL of the same media for 3 days. After this period of serum starvation, the low serum media was removed. The cells were washed once with 100 μL BBMT and incubated for two hours in 100 μL of the same media. {Note: BBMT medium is described by P. Brazeau et al., Proc. Natl. Acad. Sci. U.S.A., 79, 7909 (1980).}
Thereafter, the cells were infected with HSV-1 strain F or KOS (multiplicity of infection =0.05 PFU/cell) in 50 μL of BBMT medium. Following one hour of virus absorption at 37°, the media was removed and the cells were washed with BBMT (2×100 μL). The cells were incubated with or without 100 μL of the appropriate concentration of test reagent in BBMT medium. After 24 hours of incubation at 37°, the extent of viral replication was determined by an ELISA assay; for instance, the following assay that detects the late glycoprotein C of HSV-1.
Cells were fixed in a microtiter plate with 100 μL of 0.063% glutaraldehyde in phosphate buffered saline for 30 minutes at room temperature. The microtiter plate was then washed once with casein blocking solution and blocked with 200 μL of the same solution for one hour at room temperature. Thereafter, 100 μL of mAB Cll recognizing HSV-1 gC envelope protein [see E. Trybala et al., Journal of General Virology, 75, 743 (1994)] was added to each well for two hours at room temperature. The plate was washed three times with phosphate buffered saline containing 0.05% polyoxyethylene (20) sorbitan monooleate. The cells were and incubated with 100 μL of sheep anti-mouse IgC horseradish peroxidase for one hour at room temperature in the dark.
The plate then was washed three times with 200 μL of the above-noted phosphate buffer saline preparation, and then once with 0.1M sodium citrate (pH 4.5). Thereafter, 100 μL of orthophenylenediamine dihydrochloride (OPD, Gibco, Canada Inc.) was added to each well. The plate was agitated on a microplate shaker for 30 minutes in the dark. Color development was monitored at 450 nm using a microplate spectrophotometer.
SAS was used to calculate % inhibition of viral replication and to generate ECl50 values.
The results are illustrated in accompanying FIG. 1.
More explicitly with reference to the isobole method, this method requires experimental data generated for the two test compounds, each alone and in different combinations. In this way selected concentrations of the title compound of example 9 (EC5, EC10, EC20 and EC30) were added to a given concentration of ACV and the EC50 's were evaluated as described previously. For these experiments, the EC5, EC10, EC20 and EC30 of the title compound of example 9 (i.e. the test compound) were derived from inhibition curves previously obtained. An isobologram is generated using for the Y axis a value termed FEC60 (ACV) (which is the ratio of the concentration of ACV required to inhibit HSV replication by 60% in the presence of a fixed concentration of the test compound to the concentration required in the absence of the test compound). This is plotted against a term representing the ratio of the fixed concentration of the test compound to the concentration of the test compound that reduced inhibition of HSV replication in the absence of ACV (the X axis).
The following TABLE III is illustrative of results obtained when combinations of ACV and the title compound of example 9 (TC) were evaluated for their antiherpes activity against HSV-1. […]

Experiment [1] has as its target T1, HSV-1 ribonucleotide reductase (Human herpesvirus 1, UniProt P08543).
T1 construct: HSV-1 ribonucleotide reductase (partially purified) was obtained from quiescent BHK-21/Cl13 cells infected with strain F HSV-1 virus; made in house; host or cells: quiescent BHK-21/C13 hamster cells infected with HSV-1 strain F; native viral enzyme, partially purified
In words: Inhibition of Herpes Simplex Virus (HSV-1) ribonucleotide reductase. The format is biochemical. Conditions: partially purified enzyme from HSV-1 strain F infected BHK-21/C13 cells; mean of four assays; read-out: IC50 (concentration producing 50% of the maximal inhibition of enzyme activity). From the text: HSV-1 ribonucleotide reductase (partially purified) was obtained from quiescent BHK-21/Cl13 cells infected with strain F HSV-1 virus at 10 plaque forming units/cell as described by E. A. Cohen et al., J. Gen. Virol., 66, 733 (1985).
The assay described by P. Gaudreau et al., J. Biol, Chem., 262, 12413 (1987), is used to evaluate the capability of the compounds of formula 1 to inhibit HSV-1 ribonucleotide reductase activity. The assay results are expressed as the concentration of the compound producing 50% of the maximal inhibition (IC50) of enzyme activity. The number of units of the enzyme preparation used in each assay was constant, based on the specific activity of the enzyme preparation. The results are relative to the activity obtained in control experiments without the test compound and represent the means of four assays that varied less than 10% with each other.

In a further experiment the test system is HSV-1 strain F. In words: Inhibition of HSV-1 replication in cell culture (BHK-21 cells, ELISA of glycoprotein C), strain F. It is filed as cell-based, Herpes simplex virus type 1. Conditions: 24 hours incubation, read-out: EC50 (inhibition of viral replication). Here is the method: BHK-21 cells clone 13 (ATCC CCL10) were incubated for two days in 850 cm^2 roller bottles (2×10^7 cells/bottle) with alpha-MEM medium (Gibco Canada Inc., Burlington, Ontario, Canada) supplemented with 8% (v/v) fetal bovine serum (FBS, Gibco Canada, Inc.). The cells were trypsinized and then transferred to fresh media in a 96-well microtiter plate at a density of 50,000 cells per well in 100 μL. The cells were incubated at 37° for a period of 6 hours to allow adhesion to the plate. The cells then were washed once with 100 μL of alpha-MEM supplemented with 0.5% FBS (v/v) and incubated with 100 μL of the same media for 3 days. After this period of serum starvation, the low serum media was removed. The cells were washed once with 100 μL BBMT and incubated for two hours in 100 μL of the same media. {Note: BBMT medium is described by P. Brazeau et al., Proc. Natl. Acad. Sci. U.S.A., 79, 7909 (1980).} Thereafter, the cells were infected with HSV-1 strain F or KOS (multiplicity of infection =0.05 PFU/cell) in 50 μL of BBMT medium. Following one hour of virus absorption at 37°, the media was removed and the cells were washed with BBMT (2×100 μL). The cells were incubated with or without 100 μL of the appropriate concentration of test reagent in BBMT medium. After 24 hours of incubation at 37°, the extent of viral replication was determined by an ELISA assay; for instance, the following assay that detects the late glycoprotein C of HSV-1. Cells were fixed in a microtiter plate with 100 μL of 0.063% glutaraldehyde in phosphate buffered saline for 30 minutes at room temperature. The microtiter plate was then washed once with casein blocking solution and blocked with 200 μL of the same solution for one hour at room temperature. […] Color development was monitored at 450 nm using a microplate spectrophotometer. […] The following TABLE II provides examples of the results obtained when compounds of formula 1 were evaluated according to the cell culture assay (HSV-1 strain F) of this example.

pEC50, pIC50: −log10 of the molar value. Read-outs that look alike come from different tables or passages of the source.

T1 sequence (P08543 whole entry): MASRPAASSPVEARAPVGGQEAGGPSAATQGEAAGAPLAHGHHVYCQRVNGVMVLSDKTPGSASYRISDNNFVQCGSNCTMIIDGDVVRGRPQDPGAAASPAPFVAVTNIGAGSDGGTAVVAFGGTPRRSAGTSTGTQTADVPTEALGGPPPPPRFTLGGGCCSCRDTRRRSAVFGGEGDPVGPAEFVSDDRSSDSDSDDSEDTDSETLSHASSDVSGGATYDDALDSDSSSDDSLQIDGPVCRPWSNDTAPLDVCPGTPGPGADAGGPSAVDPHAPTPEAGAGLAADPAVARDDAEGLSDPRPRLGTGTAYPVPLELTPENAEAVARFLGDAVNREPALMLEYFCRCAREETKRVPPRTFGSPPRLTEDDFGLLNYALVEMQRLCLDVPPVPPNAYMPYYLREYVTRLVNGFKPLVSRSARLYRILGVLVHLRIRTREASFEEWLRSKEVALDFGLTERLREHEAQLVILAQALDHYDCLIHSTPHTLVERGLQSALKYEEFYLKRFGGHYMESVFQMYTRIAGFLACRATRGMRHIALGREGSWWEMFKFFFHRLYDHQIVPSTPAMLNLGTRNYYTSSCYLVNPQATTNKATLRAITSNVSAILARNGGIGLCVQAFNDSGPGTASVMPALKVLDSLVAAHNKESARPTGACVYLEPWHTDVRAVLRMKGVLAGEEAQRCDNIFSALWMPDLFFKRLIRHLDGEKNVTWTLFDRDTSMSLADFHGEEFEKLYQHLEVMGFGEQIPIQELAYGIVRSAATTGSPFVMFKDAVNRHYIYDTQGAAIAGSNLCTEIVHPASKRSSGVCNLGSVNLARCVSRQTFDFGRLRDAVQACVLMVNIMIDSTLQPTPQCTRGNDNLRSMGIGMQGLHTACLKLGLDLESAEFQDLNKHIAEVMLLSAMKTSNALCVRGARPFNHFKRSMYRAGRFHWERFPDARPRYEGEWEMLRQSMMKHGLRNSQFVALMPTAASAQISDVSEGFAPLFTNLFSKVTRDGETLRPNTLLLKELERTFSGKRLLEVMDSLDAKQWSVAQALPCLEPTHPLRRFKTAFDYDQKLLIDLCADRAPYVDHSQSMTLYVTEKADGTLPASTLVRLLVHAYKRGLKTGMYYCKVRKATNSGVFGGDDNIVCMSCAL

Take `Nc1nc2c(ncn2COCCO)c(=O)[nH]1` [ACV, acyclovir]: the pEC50 – broadly, the EC50 on a negative log10 scale, so that one unit is a factor of ten – was 5.20 with HSV-1 KOS strain (ACV + 0.05 μM of TC, read-out: EC50 of ACV in combination); 5.49 in the experiment on HSV-1 KOS strain (ACV + 0.1 μM of TC, read-out: EC50 of ACV in combination); 5.75 in the experiment on HSV-1 KOS strain (ACV + 0.15 μM of TC, read-out: EC50 of ACV in combination); 5.75 in the experiment on HSV-1 KOS strain (ACV + 0.2 μM of TC, read-out: EC50 of ACV in combination); 6.00 in the experiment with HSV-1 KOS strain (ACV + 0.3 μM of TC, read-out: EC50 of ACV in combination); 6.30 in the experiment on HSV-1 KOS strain (ACV + 0.4 μM of TC, read-out: EC50 of ACV in combination). For the same compound, in the experiment with HSV-1 KOS strain (compound alone, read-out: EC50), the pEC50 was 5.16.
Take `CC[C@@H](NC(=O)[C@@H](NC(=O)[C@@H](CC(=O)[C@@H](NC(=O)[C@H](C(C)C)N(C)C(=O)[C@H](C)CC1CCCCC1)C(C)(C)C)CC(=O)C(C)(C)C)C1(C(=O)O)CCCC1)C(C)(C)C` [R^1 =H and R^2 =Me, (3-Cyclohexyl-2(R)-methyl-1-oxopropyl)-(N--Me) Val-Tbg-CH2 --(R)--CH(CH2 C(O)CMe3)--C (O)-Asp(cyPn)-NH--(R)--CH(Et)CMe3]: in experiment [1], the pIC50 is 6.83. In addition, the negative-log EC50 (pEC50) in the experiment with HSV-1 strain F was 6.40; in the experiment with HSV-1 KOS strain (compound alone, read-out: EC50), 6.33. For the same compound, in the experiment on HSV-1 KOS strain (increasing concentrations of the title compound of example 9), the “Effect of combining with acyclovir on the EC50 of acyclovir (synergy, isobole method)” value is recorded as “proportional lowering of the EC50 of acyclovir”.
As for “(3-cyclohexyl-2 (R), 3 (R)-dimethyl-1-oxopropyl)-(N-Me) Val-Tbg-CH2 --(R)--CH (CH2 C(O) CMe3)C(O)-Asp (cyPn)-NH--(R)--CH (Et) CMe3 [R^1 and R^2 =Me]”, the pIC50 in experiment [1] was 6.72. Moreover, in the experiment on HSV-1 strain F, the negative logarithm of the EC50 (pEC50) was 6.70.
For “{3-cyclohexyl-2(S)-(1-methylethyl)-1-oxopropyl}-(N-Me) Val-Tbg-CH2 --(R)--CH(CH2 C(O)CMe3)C(O)-Asp(cypn)-NH--(R)--CH (Et)CMe3 [R^1 =H and R^2 =CHMe2]” the same measures were 6.91 and 6.70.
